We go through nine compounds from patent US20080161223A1, “Spirobornyl-2,4-(1,3-Dioxanes)] And Their Uses As Fragrance Ingredients” (GIVAUDAN SA, priority 2005, published 2008).

The subject of the first assay is panel of trained evaluators. The assay can be described thus: Determination of GC-odour threshold concentration. Conditions: gas chromatograph with sniff port; racemic mixture of compounds; group of 4 panelists; identical conditions. As for the experimental part: Determination of GC-odour threshold concentration
According to standard procedures known to the person skilled in the art, threshold concentrations for volatile perfumery compounds are determined on a gas chromatograph equipped with a sniff port by a panel of trained evaluators. The lowest concentration smelled by each panellist is recorded as the individual threshold concentration expressed in ng (absolute amount of compound delivered at the sniff port).
Under identical conditions the odour threshold concentration for racemic mixture of compounds A, B and C respectively was measured and compared by a group of 4 panelists.
For the compound `CC1OCCC2(CC3CCC2(C)C3(C)C)O1` (racemic) [A], the “odour threshold concentration geometric mean” value is on record as 22 ng.
For the compound `CC1CC2(CC3CCC2(C)C3(C)C)OC(C)O1` (racemic) [B], the “odour threshold concentration geometric mean” value was 68 ng.
Still for that read-out and setting: the figure for `CC1OCC(C)C2(CC3CCC2(C)C3(C)C)O1` (stereo not drawn) [C] is 3 ng.

System in a further assay: not listed separately
In words: Odour description (olfactory evaluation of the compound). The conditions noted are these: stated within the odour description.
As for `C[C@@H]1OC[C@H](C)[C@]2(C[C@H]3CC[C@]2(C)C3(C)C)O1` (single isomer, unassigned) [Compound 1c], the “Odour strength compared to another compound” value was “weaker than 1b”.
For the compound `CC[C@@H]1OC[C@H](C)[C@]2(C[C@H]3CC[C@]2(C)C3(C)C)O1` [Compound 1h, (1R,2S,2′R,4R,5′S)-2′-Ethyl-1,5′,7,7-tetramethylspiro[bicyclo[2.2.1]heptane-2,4′-[1,3]dioxane]], the “Odour strength compared to another compound” value is “weaker than compound 1g”.
For the compound `CC(C)[C@@H]1OC[C@H](C)[C@]2(C[C@H]3CC[C@]2(C)C3(C)C)O1` [Compound 1j, (1R,2S,2′R,4R,5′S)-2′-Isopropyl-1,5′,7,7-tetramethylspiro[bicyclo[2.2.1]heptane-2,4′-[1,3]dioxane]], the “Odour strength compared to another compound” value is reported as “weaker than compound 1i”.

System in a further assay: not listed separately
In words: Relative odour threshold of constituents compared to the whole stereoisomer mixture. The conditions noted are these: ratio rac-1b: rac-1d: 1f. The source says:
b) A 6:2:1 racemic mixture If of diastereomers of (1R*,2S*,2′S*,4R*,5′R*)-, (1R*,2S*,2′S*,4R*,5′S*)- and (1R*,2S*,2′R*,4R*,5′S*)-1,2′,5′,7,7-pentamethylspiro[bicyclo[2.2.1]heptane-2,4′-[1,3]dioxane] was obtained in 38% overall yield following the experimental procedure of Example 1c, starting from the diol mixture 2d obtained from rac-camphor via 2-(1-methylallyl)-1,7,7-trimethylbicyclo[2.2.1]heptan-2-ol (5a), applying the methodology of Kostova et al (Helv. Chim. Acta 1999, 82, 1385), i.e. route III. The epimeric intermediate enols and diols were not separated. (1R*,2S*,2′S*,4R*,5′S*)- and (1R*,2S*,2′S*,4R*,5′R*)- enatiomeric pairs are the strongest constituents of the mixture. Their relative odour threshold, compared to the whole stereoisomer mixture, were 1:50:4 (rac-1b: rac-1d: 1f).
Turning to `CC1OCC(C)C2(CC3CCC2(C)C3(C)C)O1` (racemic) [Compound 1f, (1RS,2SR,2′RS/SR,4RS,5′RS/SR)-1,2′,5′,7,7-Pentamethylspiro[bicyclo[2.2.1]heptane-2,4′-[1,3]dioxane]], the relative odour threshold was 4.
Still for that read-out and setting: then `CC1OCC(C)C2(CC3CCC2(C)C3(C)C)O1` (racemic) [rac-1b], with 1; and `CC1OCC(C)C2(CC3CCC2(C)C3(C)C)O1` (racemic) [rac-1d], with 50.
